Earlier results, collected in patent US6309839A, “Screening methods for compounds that inhibit or stimulate helicase enzyme activity” (Board of Trustees of the University of Arkansas, priority 2000, dated 2001).

Target: streptavidin (Streptomyces avidinii, UniProt P22629)
Details: no helicase present

streptavidin, sequence (P22629 25-183): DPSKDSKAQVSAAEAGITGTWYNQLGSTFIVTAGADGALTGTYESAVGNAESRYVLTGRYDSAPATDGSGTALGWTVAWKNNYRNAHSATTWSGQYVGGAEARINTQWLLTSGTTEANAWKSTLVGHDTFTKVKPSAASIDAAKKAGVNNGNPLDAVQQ

## O=C(O)CCCC[C@@H]1SC[C@@H]2NC(=O)N[C@@H]21 [biotin]
  spontaneous dissociation rate of streptavidin from biotin: 0.00033 min⁻¹
